In the NIST ThermoML archive (doi:10.1021/je2011055):
± gives the expanded uncertainty stated by the source.

Details: Liquid, Closed cell (Static) method

Row | SMILES | vapor or sublimation pressure (258.15 K) | vapor or sublimation pressure (268.15 K) | vapor or sublimation pressure (278.15 K) | vapor or sublimation pressure (288.15 K)
1 | CC(C)C [2-methylpropane] | 88.9 ± 1 kPa | 130.8 ± 1.1 kPa | 186.7 ± 1.1 kPa | 258.7 ± 1.3 kPa
2 | F/C=C/C(F)(F)F [trans-1,3,3,3-tetrafluoropropene] | 119.3 ± 1.1 kPa | 178.4 ± 1.1 kPa | 258.1 ± 1.3 kPa | 362.8 ± 1.5 kPa
